Laboratory results from patent US20180353460A1, “METHODS OF TREATING UROLOGICAL DISORDERS USING SARMs” (priority 2014, published 2018).
Several values for one entry are separate records, joined by “and”; a condition that tells them apart may be missing. Equal entries are not always repeated.

What was measured:
Format in all cases: in vivo, human
[1] = test system: postmenopausal women with SUI; test: Proof of concept clinical study: 24 hour pad weight test; settings: for Mean Pad Weights % Reduction: week 12
From the text: Secondary Objectives: • To describe the effect of 12 weeks of treatment of Compound IX on the number of voids/day as assessed by the 3 days voiding diary. […] See Tables 2 (individual subject data) and Tables 4-6 (mean pad weight data for sites 1, 2, and 3, respectively), and FIG. 17 for mean and median reductions in pad weights from baseline to week 12 (across all sites). • To describe the effect of 12 weeks of treatment of Compound IX on SUI as assessed by the Urethral Pressure Profile (UPP). The UPP assessment was removed from the protocol because it is invasive and not standard of care. […] See summary data for all subjects across the 3 sites reported in Table 7 and FIGS. 13A and 13B. • Described is the effect of 12 weeks of treatment of Compound IX on subject reported impression of stress urinary incontinence severity as assessed by the Patient Global Impression of Severity Scale (PGI-S). See summary data for all subjects across the 3 sites reported in FIG. 12A. • Described is the effect of 12 weeks of treatment of Compound IX on subject reported impression of improvement as assessed by the Patient Global Impression of Improvement Scale (PGI-I). See summary data for all subjects across the 3 sites reported in FIG. 12B. • Described is the effect of 12 weeks of treatment of Compound IX on subject reported urogenital distress as assessed by the Urinary Distress Inventory Questionnaire (UDI-6). See summary data for all subjects across of 3 sites reported in Table 7 and FIG. 12C. • Described is the effect of 12 weeks of treatment of Compound IX on subject reported impact of urinary incontinence on daily life as assessed by the Incontinence Impact Questionnaire (IIQ-7). See summary data for all subjects across the 3 sites reported in Table 7 and FIG. 12D. • Described is the effect of 12 weeks of treatment of Compound IX on subject reported sexual function as indicated on the completion of the Female Sexual Function Index Questionnaire (FSFI). See summary data for all subjects across the 3 sites reported in Table 7 and FIG. 15. • Described is the effect of 12 weeks of treatment of Compound IX on pelvic floor muscles as measured by MRI. See FIG. 11 wherein the pelvic MRI for one representative subject on trial is reported at baseline and at 12 weeks, FIG. 16 wherein the pelvic MRI's for three representative subjects on trial are reported at baseline and at 12 weeks, and Example 19 and Table 13 which provide individual measurements of levator ani thickness, inner and outer diameter of the urethra, and endometrial thickness, and mean changes in the same from baseline to week 12.
Reported herein are data for the first 18 patients at 12 weeks for the secondary endpoints of 24 hour pad weight test (Tables 2 and 4-6, and FIG. 17) and change in levator ani muscle, urethra, and endometrium for a selected subjects from Baseline to Week 12 as measured by quantitative MRI (FIGS. 11 and 16, Table 13 and Example 19). Data collection/analysis for these and additional secondary endpoints such as frequency of daily voids, urine volume per void, and bladder stress test is still ongoing.
Overall, the median pad weight decreased by 78%, from 31.07 grams at baseline to 6.97 grams at week 12; whereas mean pad weights decreased by 71% from 74.26 grams at baseline to 21.4 grams at week 12.

[2] = test system: postmenopausal women with SUI and UUI; test: Proof of concept clinical study: urge incontinence leaks per day
From the text: Unexpectedly, Compound IX reduced the median and mean number of urge leaks by ˜60-70% at the week 12 endpoint (Table 12). FIG. 14 provides mean urge leaks/day data over the course of the study in these 11 patients. At baseline the mean was 1.41 urge leaks per day which was reduced to 0.45 urge leaks per day at weak 12, representing a 68% decrease from baseline. Further, the effect on urge incontinence is durable for at least 7 months (N=7) with 0.62 urge leaks per day at 40 weeks (7 months after the last dose of Compound IX). It was unexpected to see any effect of Compound IX on urge incontinence much less such a dramatic and durable effect.
To summarize: while all of the women in the trial had predominant SUI, some also experienced urge urinary incontinence (UUI).

[3] = test system: postmenopausal women with SUI; test: Proof of concept clinical study: safety; settings: 3 mg/day p.o., 12 weeks
Protocol: Described is the safety profile of Compound IX 3 mg PO daily in subjects with SUI. See Table 8 which is historical data from other clinical trials establishing the safety profile of Compound IX in human subjects. See also the lack of increase in endometrial thickness in Example 19.
For the PGI-S measure, 12 patients reported symptoms as “moderate” or “severe” at baseline; whereas only 3 patients reported “moderate” symptoms and no patients reported “severe” at 12 weeks (FIG. 12A).

In the case of `C[C@](O)(COc1ccc(C#N)cc1)C(=O)Nc1ccc(C#N)c(C(F)(F)F)c1` [Compound IX, (S)—N-(4-Cyano-3-(trifluoromethyl)phenyl)-3-(4-cyanophenoxy)-2-hydroxy-2-methylpropanamide], the “Mean Pad Weights % Reduction” value ([1]; Site 1 (n = 10)) is reported as 77%, the “Mean Pad Weights % Reduction” value ([1]; Site 2 (n = 5)) is reported as 66% and the “Mean Pad Weights % Reduction” value ([1]; Site 3 (n = 2)) is reported as 74%. For the same compound, the “decrease of mean pad weight at week 12” value ([1]; all sites) was 71% and 78%, the “decrease of median pad weight at week 12” value ([1]; all sites) was 78% and 71% and the “median pad weight at week 12” value ([1]; baseline 31.07 grams) was 6.97 grams. For the same compound, the “mean pad weight at week 12” value ([1]; baseline 74.26 grams) was 21.4 grams, the “Pad Weights at Week 12” value ([1]; individual patients, 3 mg/day p.o., 24 hour pad weight) was 7.31 grams and 7.74 grams and 4.54 grams and 26.93 grams and 3.58 grams and −2.3 grams and 204.4 grams and 14.3 grams and 10.1 grams and 29 grams and 6.9 grams and 5.63 grams and 3.9 grams and 6.13 grams and 7.04 grams and 37.27 grams and 6.48 grams and 6.71 grams and the “% Reduction in pad weight (Week 12)” value ([1]; individual patients, week 12 vs baseline) was 88% and 55% and 52% and 45% and 98% (2×) and “126%” and 51% and 82% and 75% and 81% and 91% (2×) and 59% and 80% and 27%. The “Median urge incontinence leaks per day, Week 12” value ([2]; 11 patients with >0 baseline leaks, baseline 1.3) was 0.3, the “Mean urge incontinence leaks per day, Week 12” value ([2]; 11 patients with >0 baseline leaks, baseline 1.41) was 0.45 leaks/day and the “mean urge leaks per day at 40 weeks” value ([2]; N=7, 7 months after the last dose) was 0.62 urge leaks per day. The “Number of Urge Incontinence Leaks per Day, Week 12” value ([2]; individual patients, 3 mg/day p.o.) was 0 (10×) and 0.33 and 1 (2×) and 0.3 and 2.7 and 1.67 and 0.67, the “women with a reduction in UUI episodes per day of at least 50 percent” value ([2]; week 12) was 8 of 11 and the “women with a reduction in their number of UUI leaks compared to baseline” value ([2]; week 12) was 9 of 11 and 11 of 11. For the same compound, the “reduction of median and mean number of urge leaks” value ([2]; week 12 endpoint, 11 patients) was 60-70%, the SHBG [3] was “Reductions in SHBG” and the endometrial stripe thickness [3] was “No changes in endometrial stripe thickness”. For the same compound, the liver enzymes [3] was “Mild transient elevations in liver enzymes”, the serious adverse events [3] was “no serious adverse events reported” and the “total cholesterol, LDL, HDL and triglycerides” value [3] was “reductions in total cholesterol, LDL, HDL and triglycerides”.
